From US12384771B2, “Pleuromutilin derivative containing thiazole-pyridine benzyl quaternary ammonium salt side chain and preparation method and use thereof” (SHAANXI UNIVERSITY OF SCIENCE AND TECHNOLOGY, priority 2022, dated 2025) come the findings set out here.

Structures can show the parent of a compound that is named as a salt. Where two headings read alike, the source gives them in different places.

Holding throughout (assay): MIC, microbroth dilution, standard strains
Holding throughout (format): cell-based
(In broth dilution the organism is exposed to a series of concentrations in liquid medium.)

The test system of assay [1] is Acinetobacter baumannii ATCC 19606. On the procedure: (§1) The minimum inhibitory concentration (MIC) of the pleuromutilin derivative containing thiazole-pyridine benzyl quaternary ammonium salt side chain was tested with moxifloxacin as a positive control (purchased from Shanghai Macklin Biochemical Technology Co., Ltd.) using a microbroth dilution method.
(§2) Standard strains include gram-positive bacteria: Staphylococcus epidermidis ATCC 12228, Staphylococcus aureus ATCC 29213, ATCC 25923 and methicillin-resistant Staphylococcus aureus ATCC 33591; gram-negative bacteria: Salmonella ATCC 14028, Acinetobacter baumannii ATCC 19606, Escherichia coli ATCC 25922 and CMCC 44103, all the strains were purchased from the American Type Culture Collection.

In assay [2] the test system is Escherichia coli CMCC 44103. The procedure: as §1, §2
For assay [3], the system named is Staphylococcus aureus ATCC 25923. The procedure:
as §1, §2

Assay [4] deals with Staphylococcus aureus ATCC 29213. The procedure:
as §1, §2

Assay [5] concerns Staphylococcus epidermidis ATCC 12228. On the procedure: as §1, §2
Assay [6] has as its system methicillin-resistant Staphylococcus aureus ATCC 33591. The procedure: as §1, §2
Assay [7] relates to Escherichia coli ATCC 25922. The procedure: as §1, §2
The test system of assay [8] is Salmonella ATCC 14028. On the procedure: as §1, §2
Setting [9] is: ATCC19606, read-out: Minimum inhibitory concentration.
Setting [10] is: CMCC44103, read-out: Minimum inhibitory concentration.
Where [11] appears, read: ATCC25923, read-out: Minimum inhibitory concentration.
[12] abbreviates: ATCC29213, read-out: Minimum inhibitory concentration.
The mark [13] stands for this setting: ATCC12228, read-out: Minimum inhibitory concentration.
Setting [14] is: ATCC33591, read-out: Minimum inhibitory concentration.
[15] abbreviates: ATCC19606, ATCC 19606, read-out: Minimum inhibitory concentration.
The mark [16] stands for this setting: ATCC25922, ATCC 25922, read-out: Minimum inhibitory concentration.
Where [17] appears, read: CMCC44103, CMCC 44103, read-out: Minimum inhibitory concentration.
The mark [18] stands for this setting: ATCC14028, ATCC 14028, read-out: Minimum inhibitory concentration.
Setting [19] is: ATCC25923, ATCC 25923, read-out: Minimum inhibitory concentration.
Setting [20] is: ATCC29213, ATCC 29213, read-out: Minimum inhibitory concentration.
[21] abbreviates: ATCC12228, ATCC 12228, read-out: Minimum inhibitory concentration.
The mark [22] stands for this setting: ATCC33591, ATCC 33591, read-out: Minimum inhibitory concentration.

Take `C=C[C@]1(C)C[C@@H](OC(=O)CSc2nc(-c3cc[n+](Cc4ccccc4)cc3)cs2)[C@]2(C)[C@H](C)CC[C@]3(CCC(=O)[C@H]32)[C@@H](C)[C@@H]1O` [Compound 1, 1-Benzyl-4-(2-(((8-hydroxy-4,7,9,12-tetramethyl-3-oxy-7-vinyldecahydro-4,9a-propanecyclopenta[8]cyclen-5-yl)oxy)-2-oxoethyl)thiothiazol-4-yl)pyridyl bromide salt]: the MIC came out at 4 µg/mL in assay [1] (setting [9]); 0.25 µg/mL in assay [2] (setting [10]); 0.5 µg/mL in assay [3] (setting [11]); 0.125 µg/mL in assay [4] (setting [12]); 2 µg/mL in assay [5] (setting [13]); 1 µg/mL in assay [6] (setting [14]).
As for `C=C[C@]1(C)C[C@@H](OC(=O)CSc2nc(-c3cc[n+](Cc4ccc(C(F)(F)F)cc4)cc3)cs2)[C@]2(C)[C@H](C)CC[C@]3(CCC(=O)[C@H]32)[C@@H](C)[C@@H]1O` [Compound 3, 1-(4-(trifluoromethyl)benzyl)-4-(2-(8-hydroxy-4,7,9,12-tetramethyl-3-oxo-7-vinyldecahydro-4,9a-propancyclopent[8]cyclen-5-yl)oxy)-2-oxoethyl)thiazol-4-yl)pyridyl bromide salt], the MIC in assay [1] (setting [15]) is 2 µg/mL; in assay [7] (setting [16]) it was 1 µg/mL; in assay [2] (setting [17]), 2 µg/mL; in assay [8] (setting [18]) it was 2 µg/mL; in assay [3] (setting [19]), 1 µg/mL; in assay [4] (setting [20]), 0.25 µg/mL. The MIC turned out to be 1 µg/mL in assay [5] (setting [21]) and 2 µg/mL in assay [6] (setting [22]).
Consider `C=C[C@]1(C)C[C@@H](OC(=O)CSc2nc(-c3cc[n+](Cc4ccc(OC(F)(F)F)cc4)cc3)cs2)[C@]2(C)[C@H](C)CC[C@]3(CCC(=O)[C@H]32)[C@@H](C)[C@@H]1O` [Compound 5, 1-(4-(trifluoromethoxy)benzyl)-4-(2-(8-hydroxy-4,7,9,12-tetramethyl-3-oxo-7-vinyldecahydro-4,9a-propancyclopent[8]cyclen-5-yl)oxy)-2-oxoethyl)thiazol-4-yl)pyridyl bromide salt], for which the MIC in assay [1] (setting [15]) stood at 8 µg/mL; in assay [7] (setting [16]) it was 2 µg/mL; in assay [2] (setting [17]), 32 µg/mL; in assay [8] (setting [18]), 4 µg/mL; in assay [3] (setting [19]), 32 µg/mL; in assay [4] (setting [20]), 2 µg/mL. The MIC in assay [5] (setting [21]) and in assay [6] (setting [22]) was 2 µg/mL in each case.
Take `C=C[C@]1(C)C[C@@H](OC(=O)CSc2nc(-c3cc[n+](Cc4ccc(C(C)(C)C)cc4)cc3)cs2)[C@]2(C)[C@H](C)CC[C@]3(CCC(=O)[C@H]32)[C@@H](C)[C@@H]1O` [Compound 6, 1-(4-(tert-butyl)benzyl)-4-(2-(8-hydroxy-4,7,9,12-tetramethyl-3-oxo-7-vinyldecahydro-4,9a-propancyclopent[8]cyclen-5-yl)oxy)-2-oxoethyl)thiazol-4-yl)pyridyl bromide salt]: the MIC in assay [1] (setting [15]) was 2 µg/mL; in assay [7] (setting [16]), 2 µg/mL; in assay [2] (setting [17]), 2 µg/mL; in assay [8] (setting [18]), 2 µg/mL; in assay [3] (setting [19]), 0.5 µg/mL; in assay [4] (setting [20]), 0.25 µg/mL. The MIC in assay [5] (setting [21]) turned out to be 2 µg/mL; in assay [6] (setting [22]) it was 1 µg/mL.
In the case of `C=C[C@]1(C)C[C@@H](OC(=O)CSc2nc(-c3cc[n+](Cc4ccc(C#N)cc4)cc3)cs2)[C@]2(C)[C@H](C)CC[C@]3(CCC(=O)[C@H]32)[C@@H](C)[C@@H]1O` [Compound 8, 1-(4-(cyano)benzyl)-4-(2-(8-hydroxy-4,7,9,12-tetramethyl-3-oxo-7-vinyldecahydro-4,9a-propancyclopent[8]cyclen-5-yl)oxy)-2-oxoethyl)thiazol-4-yl)pyridyl bromide salt], the MIC in assay [1] (setting [9]) stood at 32 µg/mL; in assay [7] (ATCC25922, read-out: Minimum inhibitory concentration), 2 µg/mL; in assay [2] (setting [10]) it was 8 µg/mL; in assay [8] (ATCC14028, read-out: Minimum inhibitory concentration), 32 µg/mL; in assay [3] (setting [11]) it was 1 µg/mL; in assay [4] (setting [12]) it was 0.125 µg/mL. Moreover, the results for the MIC in assay [5] (setting [13]) and in assay [6] (setting [14]) were 8 µg/mL and 64 µg/mL, respectively.
With `C=C[C@]1(C)C[C@@H](OC(=O)CSc2nc(-c3cc[n+](Cc4ccc(F)cc4)cc3)cs2)[C@]2(C)[C@H](C)CC[C@]3(CCC(=O)[C@H]32)[C@@H](C)[C@@H]1O` [Compound 9, 1-(4-fluorobenzyl)-4-(2-(8-hydroxy-4,7,9,12-tetramethyl-3-oxo-7-vinyldecahydro-4,9a-propancyclopent[8]cyclen-5-yl)oxy)-2-oxoethyl)thiazol-4-yl)pyridyl bromide salt], the MIC was determined as 16 µg/mL in assay [1] (setting [15]); 2 µg/mL in assay [7] (setting [16]); 1 µg/mL in assay [2] (setting [17]); 1 µg/mL in assay [8] (setting [18]); 1 µg/mL in assay [3] (setting [19]); 1 µg/mL in assay [4] (setting [20]). The MIC in assay [5] (setting [21]) and in assay [6] (setting [22]) was 2 µg/mL each time.
In the case of `C=C[C@]1(C)C[C@@H](OC(=O)CSc2nc(-c3cc[n+](Cc4ccc(Cl)cc4)cc3)cs2)[C@]2(C)[C@H](C)CC[C@]3(CCC(=O)[C@H]32)[C@@H](C)[C@@H]1O` [Compound 10, 1-(4-chlorobenzyl)-4-(2-(8-hydroxy-4,7,9,12-tetramethyl-3-oxo-7-vinyldecahydro-4,9a-propancyclopent[8]cyclen-5-yl)oxy)-2-oxoethyl)thiazol-4-yl)pyridyl bromide salt], the MIC is 2 µg/mL in assay [1] (setting [15]); 0.5 µg/mL in assay [7] (setting [16]); 1 µg/mL in assay [2] (setting [17]); 2 µg/mL in assay [8] (setting [18]); 2 µg/mL in assay [3] (setting [19]); 0.125 µg/mL in assay [4] (setting [20]). Further, the MIC in assay [5] (setting [21]) and in assay [6] (setting [22]) was 2 µg/mL in each case.
Consider `C=C[C@]1(C)C[C@@H](OC(=O)CSc2nc(-c3cc[n+](Cc4ccc(Br)cc4)cc3)cs2)[C@]2(C)[C@H](C)CC[C@]3(CCC(=O)[C@H]32)[C@@H](C)[C@@H]1O` [Compound 11, 1-(4-bromobenzyl)-4-(2-(8-hydroxy-4,7,9,12-tetramethyl-3-oxo-7-vinyldecahydro-4,9a-propancyclopent[8]cyclen-5-yl)oxy)-2-oxoethyl)thiazol-4-yl)pyridyl bromide salt], for which the MIC in assay [1] (setting [15]) amounted to 2 µg/mL; in assay [7] (setting [16]), 2 µg/mL; in assay [2] (setting [17]), 0.5 µg/mL; in assay [8] (setting [18]), 4 µg/mL; in assay [3] (setting [19]) it was 1 µg/mL; in assay [4] (setting [20]), 0.5 µg/mL. For the same compound, the MIC in assay [5] (setting [21]) and in assay [6] (setting [22]) was 2 µg/mL throughout.
On to `C=C[C@]1(C)C[C@@H](OC(=O)CSc2nc(-c3cc[n+](Cc4ccc(-c5ccccc5)cc4)cc3)cs2)[C@]2(C)[C@H](C)CC[C@]3(CCC(=O)[C@H]32)[C@@H](C)[C@@H]1O` [Compound 12, 1-([1,1′-biphenyl]-4-ylmethyl)-4-(2-(8-hydroxy-4,7,9,12-tetramethyl-3-oxo-7-vinyldecahydro-4,9a-propancyclopent[8]cyclen-5-yl)oxy)-2-oxoethyl)thiazol-4-yl)pyridyl bromide salt], for which the MIC in assay [1] (setting [15]) is 2 µg/mL; in assay [7] (setting [16]), 1 µg/mL; in assay [2] (setting [17]), 1 µg/mL; in assay [8] (setting [18]), 2 µg/mL; in assay [3] (setting [19]), 1 µg/mL; in assay [4] (setting [20]), 0.5 µg/mL. Also, the MIC in assay [5] (setting [21]) and in assay [6] (setting [22]) was 2 µg/mL in each case.
As to `C=C[C@]1(C)C[C@@H](OC(=O)CSc2nc(-c3cc[n+](Cc4cc(C)cc(C)c4)cc3)cs2)[C@]2(C)[C@H](C)CC[C@]3(CCC(=O)[C@H]32)[C@@H](C)[C@@H]1O` [Compound 13, 1-(3,5-dimethylbenzyl)-4-(2-(8-hydroxy-4,7,9,12-tetramethyl-3-oxo-7-vinyldecahydro-4,9a-propancyclopent[8]cyclen-5-yl)oxy)-2-oxoethyl)thiazol-4-yl)pyridyl bromide salt], the MIC in assay [1] (setting [15]) was determined as 8 µg/mL; in assay [7] (setting [16]) it was 32 µg/mL; in assay [2] (setting [17]), 32 µg/mL; in assay [8] (setting [18]), 16 µg/mL; in assay [3] (setting [19]) it was 64 µg/mL; in assay [4] (setting [20]) it was 128 µg/mL. For the same compound, the results for the MIC in assay [5] (setting [21]) and in assay [6] (setting [22]) were 128 µg/mL and 64 µg/mL, respectively.
As for `C=C[C@]1(C)C[C@@H](OC(=O)CSc2nc(-c3cc[n+](Cc4cc(OC)cc(OC)c4)cc3)cs2)[C@]2(C)[C@H](C)CC[C@]3(CCC(=O)[C@H]32)[C@@H](C)[C@@H]1O` [Compound 14, 1-(3,5-dimethoxybenzyl)-4-(2-(8-hydroxy-4,7,9,12-tetramethyl-3-oxo-7-vinyldecahydro-4,9a-propancyclopent[8]cyclen-5-yl)oxy)-2-oxoethyl)thiazol-4-yl)pyridyl bromide salt], the MIC in assay [1] (setting [15]) came out at 8 µg/mL; in assay [7] (setting [16]) it was 32 µg/mL; in assay [2] (setting [17]) it was 8 µg/mL; in assay [8] (setting [18]), 16 µg/mL; in assay [3] (setting [19]), 64 µg/mL; in assay [4] (setting [20]) it was 128 µg/mL. Besides, the MIC in assay [5] (setting [21]) and in assay [6] (setting [22]) was 64 µg/mL each time.
